Data on 27 molecules can be found in patent US12600709B2, “Nonpeptide somatostatin type 5 receptor agonists and uses thereof” (Crinetics Pharmaceuticals, Inc., priority 2019, dated 2026).

This assay has as its target T1, human somatostatin receptor subtype 5 (Homo sapiens, UniProt P35346).
T1 construct: expressed in transfected cells
The experiment in a line: cAMP assay for SST5R (inhibition of cAMP in CHO-K1 cells). The format is cell-based. The following applies: Table A; inhibition of cAMP via human SST5 receptor; read-out: SST5 potency. The source says: General overview: All five SSTR subtypes are Gi coupled G-protein coupled receptors (GPCRs) that lead to decreases in intracellular cyclic AMP (cAMP) when activated by an agonist. Therefore, measurement of intracellular cAMP levels can be used to assess whether compounds of the invention are agonists of SSTR subtypes (John Kelly, Troy Stevens, W. Joseph Thompson, and Roland Seifert, Current Protocols in Pharmacology, 2005, 2.2.1-2.2). One example of an intracellular cAMP assay is described below.
cAMP Assay Protocol for SST5R:
Four days prior to the assay, 2,000 Chinese hamster ovary cells (CHO-K1, ATCC #CCL-61) stably expressing the human somatostatin receptor subtype 5 are plated in each well of a 96-well tissue culture-treated plate in Ham's F12 growth media (ThermoFisher #10-080-CM) supplemented with 10% donor bovine serum (Gemini Bio-Products #100-506), 100 U/mL penicillin; 100 µg/mL streptomycin; 2 mM L-glutamine (Gemini Bio-Products #400-110) and 0.25 mg/mL G418 Sulfate (GoldBio #108321-42-2). The cells are cultured at 37° C., 5% CO2 and 95% humidity. On the day of the assay, the media is aspirated and the cells are treated with 50 μL of 1.6 μM NKH477 (Sigma #N3290) plus various dilutions of compounds of the invention in assay buffer [1× Hank's Balanced Salt Solution (ThermoFisher #SH3058802), 0.5 mM HEPES pH 7.4, 0.1% bovine serum albumin, 0.2 mM 3-Isobutyl-1-methylxanthine (IBMX, VWR #200002-790)]. The cells are incubated for 20 minutes at 37° C. […] The cells are treated with 50 μL of lysis buffer (HRTF cAMP kit, Cisbio) for 30 minutes and then the lysate is diluted to 250 μL with assay buffer. The lysate is transferred to 384-well plates and cAMP detection and visualization antibodies are added and incubated for 1-24 hours at room temperature. The time-resolved fluorescent signal is read with a Tecan M1000Pro multiplate reader. The intracellular cAMP concentrations are calculated by regression to a standard curve and are plotted vs. the concentration of the compounds of the invention and the EC50 of the compounds are calculated using standard methods. All data manipulations are in GraphPad Prism v6 or v7.
In general terms: Cyclic AMP is a second messenger, typically raised through Gs and lowered through Gi signalling.

T1 sequence (P35346 whole entry): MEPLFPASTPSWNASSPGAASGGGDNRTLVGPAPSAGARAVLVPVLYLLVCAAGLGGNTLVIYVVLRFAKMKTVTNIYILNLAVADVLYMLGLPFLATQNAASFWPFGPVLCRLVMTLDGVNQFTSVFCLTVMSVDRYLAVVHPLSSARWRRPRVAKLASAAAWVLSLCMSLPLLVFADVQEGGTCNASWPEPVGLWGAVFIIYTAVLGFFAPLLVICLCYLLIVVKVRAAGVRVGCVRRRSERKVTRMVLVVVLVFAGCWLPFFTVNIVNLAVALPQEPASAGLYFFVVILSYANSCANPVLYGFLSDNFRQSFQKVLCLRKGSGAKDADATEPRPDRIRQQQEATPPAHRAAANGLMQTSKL

Turning to `Cc1cccc2[nH]c(-c3cncc(C(=O)N4CCC(C(F)(F)F)C4)c3N3CC[C@](C)(N)C3)nc12` (stereo partly drawn) [2-44, (3S)-3-methyl-1-[3-(4-methyl-1H-1,3-benzodiazol-2-yl)-5-[3-(trifluoromethyl)pyrrolidine-1-carbonyl]pyridin-4-yl]pyrrolidin-3-amine], the EC50 fell in the range of 10 to 100 nM. The value for `Cc1ncc(C(=O)NC(CO)C2CC2)c(N2CC[C@](C)(N)C2)c1-c1cc(F)cc(F)c1` (stereo partly drawn) [1-224, 4-[(3S)-3-amino-3-methylpyrrolidin-1-yl]-N-(1-cyclopropyl-2-hydroxyethyl)-5-(3,5-difluorophenyl)-6-methylpyridine-3-carboxamide] was 10 to 100 nM; that for `C[C@H](NC(=O)c1cnc(C#N)c(-c2cc(F)cc(F)c2)c1N1CC[C@@](N)(CF)C1)C1CC1` (single isomer, unassigned) [1-220] was under 10 nM; that for `N#Cc1ncc(C(=O)NC2CCCC2)c(N2CC[C@H](N)C2)c1-c1cc(F)cc(F)c1` [1-82, 4-[(3S)-3-aminopyrrolidin-1-yl]-6-cyano-N-cyclopentyl-5-(3,5-difluorophenyl)pyridine-3-carboxamide] was under 10 nM.

Regarding `C[C@]1(N)CCN(c2c(C(=O)NCC(F)(F)F)cncc2-c2cc(F)cc(F)c2)C1` [1-28, 4-[(3S)-3-amino-3-methylpyrrolidin-1-yl]-5-(3,5-difluorophenyl)-N-(2,2,2-trifluoroethyl)pyridine-3-carboxamide], the EC50 was in the range of 10 to 100 nM.

As for `COc1ncc(C(=O)N[C@@H](C)C2CC2)c(N2CC[C@H](N)C2)c1-c1cc(F)cc(F)c1` [1-152, 4-[(3S)-3-aminopyrrolidin-1-yl]-N-[(1S)-1-cyclopropylethyl]-5-(3,5-difluorophenyl)-6-methoxypyridine-3-carboxamide], the EC50 was under 10 nM. The value for `COc1ncc(C(=O)N[C@H]2CCC(F)(F)C2)c(N2CC[C@](C)(N)C2)c1-c1cc(F)cc(F)c1` [1-145, 4-[(3S)-3-amino-3-methylpyrrolidin-1-yl]-N-[(1S)-3,3-difluorocyclopentyl]-5-(3,5-difluorophenyl)-6-methoxypyridine-3-carboxamide] was under 10 nM. The same measure for `Cn1cc(CNC(=O)c2cnc(C#N)c(-c3cc(F)cc(F)c3)c2N2CC[C@](C)(N)C2)cn1` [1-107, 4-[(3S)-3-amino-3-methylpyrrolidin-1-yl]-6-cyano-5-(3,5-difluorophenyl)-N-[(1-methyl-1H-pyrazol-4-yl)methyl]pyridine-3-carboxamide]: 10 to 100 nM; for `COCCNC(=O)c1cncc(-c2nc3c(C)cccc3[nH]2)c1N1CC[C@](C)(N)C1` [2-8, 4-[(3S)-3-amino-3-methylpyrrolidin-1-yl]-N-(2-methoxyethyl)-5-(4-methyl-1H-1,3-benzodiazol-2-yl)pyridine-3-carboxamide]: 10 to 100 nM; for `C[C@@H](NC(=O)c1cncc(-c2cc(F)cc(F)c2)c1N1CC[C@](C)(N)C1)C(F)(F)F` [1-53, 4-[(3S)-3-amino-3-methylpyrrolidin-1-yl]-5-(3,5-difluorophenyl)-N-[(2R)-1,1,1-trifluoropropan-2-yl]pyridine-3-carboxamide]: under 10 nM. The same measure for `Cc1cccc2[nH]c(-c3cncc(C(=O)NCCO)c3N3CC[C@](C)(N)C3)nc12` [2-9, 4-[(3S)-3-amino-3-methylpyrrolidin-1-yl]-N-(2-hydroxyethyl)-5-(4-methyl-1H-1,3-benzodiazol-2-yl)pyridine-3-carboxamide]: 100 to 1000 nM.

Consider `Cc1cc(F)cc(-c2cncc(C(=O)NC3(C(F)(F)F)CCCC3)c2N2CC[C@](C)(N)C2)c1` [1-15, 4-[(3S)-3-amino-3-methylpyrrolidin-1-yl]-5-(3-fluoro-5-methylphenyl)-N-[1-(trifluoromethyl)cyclopentyl]pyridine-3-carboxamide], for which the EC50 was under 10 nM. The same measure for `C[C@H](NC(=O)c1ccnc(-c2cc(F)cc(F)c2)c1N1CC[C@](C)(N)C1)C1CC1` [3-1, 3-[(3S)-3-amino-3-methylpyrrolidin-1-yl]-N-[(1S)-1-cyclopropylethyl]-2-(3,5-difluorophenyl)pyridine-4-carboxamide]: 10 to 100 nM; for `C[C@H](NC(=O)c1cnc(C#N)c(-c2cc(F)cc(F)c2)c1N1CC[C@](N)(CF)C1)C1CC1` (single isomer, unassigned) [1-221]: 10 to 100 nM. As for `Cc1cccc2[nH]c(-c3cncc(C(=O)NC4CCCC4)c3N3CC[C@](C)(N)C3)nc12` [2-4, 4-[(3S)-3-amino-3-methylpyrrolidin-1-yl]-N-cyclopentyl-5-(4-methyl-1H-1,3-benzodiazol-2-yl)pyridine-3-carboxamide], the EC50 is under 10 nM. The value for “N-(adamantan-1-yl)-3-[(3S)-3-amino-3-methylpyrrolidin-1-yl]-2-(3,5-difluorophenyl)pyridine-4-carboxamide [3-7]” was 10 to 100 nM.

Regarding `Cc1cccc2[nH]c(-c3cncc(C(=O)NC4CC4)c3N3CC[C@](C)(N)C3)nc12` [2-12, 4-[(3S)-3-amino-3-methylpyrrolidin-1-yl]-N-cyclopropyl-5-(4-methyl-1H-1,3-benzodiazol-2-yl)pyridine-3-carboxamide], the EC50 is 10 to 100 nM.

In the case of `Cc1cccc2[nH]c(-c3cncc(C(=O)N4CCc5ccccc54)c3N3CC[C@](C)(N)C3)nc12` [2-34, (3S)-1-[3-(2,3-dihydro-1H-indole-1-carbonyl)-5-(4-methyl-1H-1,3-benzodiazol-2-yl)pyridin-4-yl]-3-methylpyrrolidin-3-amine], the EC50 is 10 to 100 nM. The same measure for `Cc1ncc(C(=O)N[C@@H](C)C2CC2)c(N2CC[C@](C)(N)C2)c1-c1cnn(C2CC2)c1` [1-156, 4-[(3S)-3-amino-3-methylpyrrolidin-1-yl]-5-(1-cyclopropyl-1H-pyrazol-4-yl)-N-[(1S)-1-cyclopropylethyl]-6-methylpyridine-3-carboxamide]: 10 to 100 nM. The value for `Cc1cccc2[nH]c(-c3cncc(C(=O)NC(C)CC(F)(F)F)c3N3CC[C@](C)(N)C3)nc12` (stereo partly drawn) [2-32, 4-[(3S)-3-amino-3-methylpyrrolidin-1-yl]-5-(4-methyl-1H-1,3-benzodiazol-2-yl)-N-(4,4,4-trifluorobutan-2-yl)pyridine-3-carboxamide] was under 10 nM; that for `Cc1cccc2[nH]c(-c3cncc(C(=O)N(C)C4CC4)c3N3CC[C@](C)(N)C3)nc12` [2-22, 4-[(3S)-3-amino-3-methylpyrrolidin-1-yl]-N-cyclopropyl-N-methyl-5-(4-methyl-1H-1,3-benzodiazol-2-yl)pyridine-3-carboxamide] was 10 to 100 nM; that for `Cc1cccc2[nH]c(-c3cncc(C(=O)N4CCCC4)c3N3CC[C@](C)(N)C3)nc12` [2-2, (3S)-3-methyl-1-[3-(4-methyl-1H-1,3-benzodiazol-2-yl)-5-(pyrrolidine-1-carbonyl)pyridin-4-yl]pyrrolidin-3-amine] was 10 to 100 nM. The value for `Cc1ncc(C(=O)N[C@@H](C)C2CC2)c(N2CC[C@](C)(N)C2)c1-c1cnn(C)c1` [1-148, 4-[(3S)-3-amino-3-methylpyrrolidin-1-yl]-N-[(1S)-1-cyclopropylethyl]-6-methyl-5-(1-methyl-1H-pyrazol-4-yl)pyridine-3-carboxamide] was under 10 nM; that for `N[C@H]1CCN(c2c(C(=O)NC3CCC(F)(F)CC3)cnc(OCCCC(=O)O)c2-c2cc(F)cc(F)c2)C1` [1-205, 4-({4-[(3S)-3-aminopyrrolidin-1-yl]-5-[(4,4-difluorocyclohexyl)carbamoyl]-3-(3,5-difluorophenyl)pyridin-2-yl}oxy)butanoic acid] was under 10 nM.

For the molecule `C[C@]1(N)CCN(c2c(C(=O)NC3CCC(F)(F)CC3)cnc(C3CC3)c2-c2cc(F)cc(F)c2)C1` [1-281, 4-[(3S)-3-amino-3-methylpyrrolidin-1-yl]-6-cyclopropyl-N-(4,4-difluorocyclohexyl)-5-(3,5-difluorophenyl)pyridine-3-carboxamide], the EC50 was under 10 nM. In the case of `Cc1cccc2[nH]c(-c3cncc(C(=O)N4CCC(F)(F)C4)c3N3CC[C@](C)(N)C3)nc12` [2-25, (3S)-1-[3-(3,3-difluoropyrrolidine-1-carbonyl)-5-(4-methyl-1H-1,3-benzodiazol-2-yl)pyridin-4-yl]-3-methylpyrrolidin-3-amine], the EC50 lay within 10 to 100 nM. The value for `COc1ncc(C(=O)N[C@@H](C)C2CC2)c(N2CC[C@](C)(N)C2)c1-c1cc(F)cc(F)c1` [1-141, 4-[(3S)-3-amino-3-methylpyrrolidin-1-yl]-N-[(1S)-1-cyclopropylethyl]-5-(3,5-difluorophenyl)-6-methoxypyridine-3-carboxamide] was under 10 nM.
